This passage reports melting point results from a melting point compilation (Tetko et al.).

SMILES strings stand for the structures. Where only a bound is given, the exact number is not on record here.

For `Cc1c(C)c(C)c2c(c1C)CC1C=CC=CN1C2=O` (stereo not drawn), the melting point (in general, the temperature, or range, at which the solid turns liquid) was found to be 139 °C.
For `Cc1cccc(N/N=C(/C#N)c2nc(-c3ccc(Cl)cc3)cs2)c1` the value was 157 °C; for `O=C(c1ccccc1)C1CC1`, 7 to 9 °C; for `O=C(O)c1cnccc1C(F)(F)F`, 150 °C.
The value for `Cc1cccc(NN=C2C(=O)NN=C2C(F)(F)F)c1` was 155 °C; that for `N#CCc1cc(Cl)ccc1[N+](=O)[O-]` was 87 °C; that for `CC1=CCC(=O)O1` was 18 °C.
Take `c1ccc(CN2CCCNCCN(Cc3ccccc3)CCCNCC2)cc1`: the melting point turned out to be 68 °C.
The compound `Cn1c(S)nnc1CNC(=O)OC(C)(C)C` returned a melting point of 168 to 169 °C.
For the compound `Cc1cc(C)n2cnnc2n1`, the melting point was 165 to 167 °C.
In turn, `Clc1ccc(-c2c(Cl)cc(Cl)c(Cl)c2Cl)cc1Cl` had a melting point of 107 °C.
For `CC(=O)c1c(O)c(C)c(O)c2c1OC1=CC(=O)C(C(C)=O)C(=O)C12C` (stereo not drawn) the value was 204 °C.
`Nc1c(Br)cc(F)c(F)c1F`: the melting point was 58 to 60 °C.
For `O=C(O)CS(=O)(=O)O` the value was 85 °C; for `Cc1cc(O)nc2ccccc12`, 226 °C; for `C/C(Cc1ccccc1)=N\NC(N)=O`, 189 °C.
For `COc1cc(Br)c(CC#N)cc1OC` the value was 87 to 89 °C.
The value for `CCCCCCCCC(N)=O` was 99.5 °C.
In the case of `O=C(O)C=Cc1cc(F)ccc1F`, the melting point was found to be 139 °C.
`O=C1c2ccccc2C1Cl` (stereo not drawn) had a melting point of 67 °C.
`Nc1ccc(Oc2c(Cl)cccc2Cl)nc1` came in with a melting point of 120 to 122 °C.
For `O=C(O)c1ccc2[nH]ccc2c1` the value was 210 °C; for `CCCOCCC`, -122 °C; for `COc1cc2c(cc1OC)C(c1ccc(Cl)cc1)N(C(C)=O)CC2` (stereo not drawn), 130 to 132 °C.
In the case of `COc1ccc(CCN2CCc3c([nH]c4ccccc34)C2=O)cc1OC`, the melting point lay within 206 to 207 °C.
The value for `Cc1cc2cc3cc(C)[nH]c3cc2[nH]1` was more than 170 °C.
For `CC(C)(C)OC(=O)NC(C)(C)C(=O)O` the value was 117 to 121 °C.
For `CCCCOC(=O)c1ccccc1O` the value was -5.9 °C; for `COc1ccc(CCO)cc1OC`, 46 °C.
In turn, `CC1(C)CC(N)CC(C)(C)N1` had a melting point of 17 °C.
In turn, `CC(C)(C)OC(=O)N1CC(=O)CC1C(=O)O` (stereo not drawn) registered a melting point of 155 to 156 °C.
For `CCN(CC)CCC1(c2ccccc2)C(=O)Oc2ccccc21` (stereo not drawn) the value was 43.4 °C.
The compound `COC(=O)c1cc([N+](=O)[O-])ccc1OC` had a melting point of 101 °C.
For `O=C(C1=NOC2C(=O)N(c3ccc(Cl)cc3)C(=O)C12)c1ccccc1` (stereo not drawn) the value was 137 °C.
In the case of `O=c1c(Cl)c(Cl)cnn1-c1ccc(C(F)(F)F)cc1`, the melting point was in the range of 139 to 140 °C.
Take `NCc1csc2ccc(Br)cc12`: the melting point was in the range of 37 to 38 °C.
`O=C(c1ccc(Cl)cc1)c1cc2c(cc1Br)OCCO2` yielded a melting point of 129 to 130 °C.
The value for `Brc1cccc(Cn2ccnc2)c1` was 62 to 70 °C; that for `Cc1nc(-c2ccc(C(F)(F)F)cc2)sc1Br` was 68 to 69 °C; that for `CCOc1cc(C(=O)O)cc(OCC)c1OCC` was 112 °C.
For `CC(/C=N/NC(N)=O)=N\NC(N)=O` the value was 255 °C.
The value for `OCc1cccc(OCc2ccccc2)c1` was 49 °C; that for `CC1(C)CC(=O)C(=NNc2cccc([N+](=O)[O-])c2)C(=O)C1` was 186 °C; that for `CCCCCc1ccc(-c2ccc(C#N)cc2)cc1` was 34 °C.
With `ClC(Cl)=C(Cl)C(Cl)=C(Cl)Cl`, the melting point was -21 °C.
`Cc1n[nH]c(C)c1N` had a melting point of 192 °C.
For `CCOC=C(C#N)S(=O)(=O)c1ccc(Cl)cc1`, the melting point lay within 121 to 124 °C.
The value for `CC(=O)c1ccc(-c2c(Cl)cc(Cl)cc2Cl)o1` was 108 °C.
For `NS(=O)(=O)c1ccc(SCCCCCO)cc1` the value was 103 °C; for `CC(=O)NC(=O)c1ccccc1O`, 148 °C.
`CCOC(=O)C1=C(C)NC(=O)NC1c1ccc(Cl)cc1` (stereo not drawn) gave a melting point of 185 °C.
The value for `NC(=NO)c1cccc(Cl)c1` was 115 to 117 °C; that for `N#Cc1ccc(C#N)c(OC(F)(F)F)c1` was 79 to 81 °C; that for `CCOC(=O)c1c(NC(=S)Nc2ccc(Cl)cc2)sc2c1CCN(Cc1ccccc1)C2` was 169 to 172 °C.
In the case of `N[C@H]1CCC[C@H]1C(=O)O` (relative stereo), the melting point was 218 to 220 °C.
Compound `CCCCC[C@H]1CC[C@H](C(=O)O)CC1` returned a melting point of 52 to 56 °C.
The compound `O=C(O)c1cccc2c1Cc1ccccc1-2` showed a melting point of 247 °C.
In turn, `COC(=O)CCC(C)C1CCC2C3C(=O)C(Br)C4CCCCC4(C)C3CCC12C` (stereo not drawn) gave a melting point of 123 to 124 °C.
In turn, `NC(=O)/C(=N\Nc1cccc(C(F)(F)F)c1)c1nc2ccccc2s1` gave a melting point of 190 °C.
For `CCOC(=O)c1ccc2c(c1)nnn2C` the value was 105 to 108 °C; for `O=c1[nH]nc2oc3ccccc3cc1-2`, 220 °C; for `Brc1cn[nH]c1`, 94.5 °C.
The value for `CCCc1cccc(C)c1` was -82.5 °C; that for `Cc1cc(Cl)c(Cl)c(Cl)c1` was 45.5 °C; that for `Cc1c(F)c(F)c(CBr)c(F)c1F` was 42 °C.
The compound `Oc1ccc2cccc(Cl)c2c1` showed a melting point of 101 °C.
In turn, `Nc1cc(Cl)c(Cl)c(Cl)c1Cl` had a melting point of 118 to 119 °C.
The value for `NC1=C(C(=O)Nc2ccccc2)C(c2ccc(Br)cc2)C2Oc3ccccc3C2O1` (stereo not drawn) was 282 °C; that for `Cc1cc(C)c(C)c(CO)c1C` was 112 °C.
Compound `O=[N+]([O-])c1ccc(Br)s1` had a melting point of 44 °C.
For `CNc1cnn(-c2cccc(C(F)(F)F)c2)c(=O)c1Cl` the value was 184 °C; for `O=[N+]([O-])Nc1ccccc1`, 47.3 °C; for `COc1ccc(OC(C)=O)cc1`, 32 °C.
The value for `CC12CCC(O)CC1CCC1C2CCC2(C)C(C3=CC(=O)OC3)CCC12O` (stereo not drawn) was 253 °C; that for `NCC(O)CC(=O)O` (racemic) was 202 °C; that for `Nc1ccc(C(F)(F)F)cc1` was 38 °C.
With `Nc1cc(N)c(/C=C/c2ccccc2)c(N)c1C=Cc1ccccc1`, the melting point is 161 °C.
For `O=C(Cl)c1cccnc1Oc1ccccc1` the value was 90 to 91 °C.
The value for `CCCCC(C(=O)O)C(=O)O` was 104 °C; that for `C=C1C(=O)C23C4CC5C(C)(C)CCC(OC(C)=O)C5(C)C2C(OC(C)=O)CC1(O)C3OC(C)(C)O4` (stereo not drawn) was 246 °C.
For `NCc1ccccc1O` the value was 127 to 131 °C.
Regarding `CCCC(=O)OC(=O)CCC`, the melting point was -73 °C.
The value for `Oc1cccc2cc3cccc(O)c3c(O)c12` was 178 °C; that for `Nc1c(Br)cc(F)cc1Br` was 65 °C.
Consider `CCc1ccc(C(c2ccc(CC)cc2)C(Cl)Cl)cc1`, for which the melting point came to 56 °C.
In the case of `c1cc2c(cc1CN1CCNCC1)OCO2`, the melting point worked out at 43 °C.
For `CC(=O)CCc1oc2ccc(I)cc2c1-c1ccc(C)o1` the value was 94 °C; for `CSc1ncccc1-c1nc(CCl)no1`, 110 to 111 °C.
Turning to `O=c1[nH]cnc2c1cnn2C1CCCCC1`, the melting point fell in the range of 251 to 252 °C.
For `Cn1ccsc1=NC(=O)c1ccccc1` the value was 114 °C; for `C=C(C)C=CC(=C)C`, -9 °C; for `O=C1NC(=O)C([N+](=O)[O-])C(=O)N1`, 180 °C.
Take `Cc1ccc(/C=C2\CN(S(=O)(=O)c3ccc(C)cc3)c3ccccc3N2S(=O)(=O)c2ccc(C)cc2)cc1`: the melting point is 155 °C.
For `O=S(=O)(O)CCCN1CCOCC1` the value was 284 °C.
As to `Cc1ccc(S(=O)(=O)n2cc(C=O)c3ccccc32)cc1`, the melting point was in the range of 138 to 140 °C.
For `Cc1cccc2cc3ccc4ccccc4c3cc12` the value was 118 °C; for `C1CCCCCCCCCCCCC1`, 54 °C; for `Nc1ccccc1/C=C/c1nc2ccccc2[nH]1`, 213 °C.
The value for `Cc1cc(C)c(C)c(O)c1C` was 118 °C; that for `CC(CCC(=O)O)C1CCC2C3C(O)CC4CC5(CCC4(C)C3CC(=O)C12C)OCCO5` (stereo not drawn) was 219 °C.
The value for `Cc1c(CCl)cccc1[N+](=O)[O-]` was 42 to 47 °C.
Compound `CCOC(=O)c1nn(-c2ccc(F)cc2)c(-c2cccs2)c1S(=O)(=O)c1ccccc1` displayed a melting point of 151 °C.
For `NC(=NO)C(N)=NO` the value was 200 to 204 °C; for `CC(=O)Nc1nccs1`, 204 to 208 °C.
Turning to `O=C(c1ccco1)c1noc(-c2ccc(Cl)cc2)c1S(=O)(=O)c1ccccc1`, the melting point was 140 °C.
The value for `CC(C)(C)C(Br)Br` was 14 °C.
For `CC(=O)O[C@H]1C[C@H]2[C@@H]3CCC4CCCC[C@]4(C)[C@H]3CC[C@]2(C)C1` (stereo partly drawn), the melting point came to 108 °C.
The compound `C=CC=CC#N` came in with a melting point of -60 °C.
The value for `O=S(=O)(Cl)c1ccc2c(c1)OCCCO2` was 50 to 52 °C.
For `CC(C)(C)OC(=O)C(C(=O)Cc1ccccc1)c1ccccc1` (stereo not drawn) the value was 82.2 to 83.5 °C; for `CC(CC(=O)O)C1CCC2C3CCC4CCCCC4(C)C3CCC12C` (stereo not drawn), 177 °C.
For `N#Cc1c(-c2ccccc2)c2c(O)[nH]n(-c3ccccc3)c-2nc1=S` the value was 142 °C; for `CCOC(=O)NNC(=O)Nc1ccc(Cl)c(Cl)c1`, 207 °C.
